ChEMBL document CHEMBL5678818, “Discovery of potent SOS1 inhibitors that block RAS activation via disruption of the RAS-SOS1 interaction” (Proc Natl Acad Sci U S A, 2019)

Legend:
[1] = target: RAC-beta serine/threonine-protein kinase (Homo sapiens) (UniProt P31751); assay: Inhibition of AKT2 (unknown origin) assessed as residual activity at 1000 nM by KINOMEscan analysis relative to control
[2] = target: Mitogen-activated protein kinase kinase kinase 4 (Homo sapiens) (UniProt Q9Y6R4); assay: Inhibition of MAP3K4 (unknown origin) assessed as residual activity at 1000 nM by KINOMEscan analysis relative to control
[3] = target: T1, Serine/threonine-protein kinase haspin (Homo sapiens) (UniProt Q8TF76); assay: Inhibition of HASPIN (unknown origin) assessed as residual activity at 1000 nM by KINOMEscan analysis relative to control
T1 sequence (whole entry): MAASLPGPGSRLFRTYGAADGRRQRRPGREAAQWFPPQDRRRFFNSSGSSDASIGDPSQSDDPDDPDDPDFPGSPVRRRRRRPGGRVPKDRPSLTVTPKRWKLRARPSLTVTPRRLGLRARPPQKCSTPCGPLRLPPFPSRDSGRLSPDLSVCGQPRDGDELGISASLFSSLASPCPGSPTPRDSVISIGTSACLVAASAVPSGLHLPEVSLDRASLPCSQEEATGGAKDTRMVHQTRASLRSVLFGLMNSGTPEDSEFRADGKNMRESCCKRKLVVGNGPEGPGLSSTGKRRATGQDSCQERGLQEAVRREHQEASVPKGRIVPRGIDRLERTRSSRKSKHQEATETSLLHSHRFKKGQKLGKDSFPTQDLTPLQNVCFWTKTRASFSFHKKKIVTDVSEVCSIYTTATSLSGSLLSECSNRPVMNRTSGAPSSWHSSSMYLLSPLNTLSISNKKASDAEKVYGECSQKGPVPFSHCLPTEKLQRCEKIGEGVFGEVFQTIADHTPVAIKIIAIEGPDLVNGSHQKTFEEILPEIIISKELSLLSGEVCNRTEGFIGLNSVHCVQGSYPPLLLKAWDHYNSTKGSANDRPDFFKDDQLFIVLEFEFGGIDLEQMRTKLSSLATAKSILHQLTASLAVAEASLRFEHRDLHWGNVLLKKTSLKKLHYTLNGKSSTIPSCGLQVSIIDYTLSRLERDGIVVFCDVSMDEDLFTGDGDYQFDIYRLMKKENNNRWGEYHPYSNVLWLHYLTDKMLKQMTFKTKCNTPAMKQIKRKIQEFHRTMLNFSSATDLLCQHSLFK

[4] = target: T2, Dual specificity tyrosine-phosphorylation-regulated kinase 2 (Homo sapiens) (UniProt Q92630); assay: Inhibition of DYRK2 (unknown origin) assessed as residual activity at 1000 nM by KINOMEscan analysis relative to control
T2 sequence (whole entry): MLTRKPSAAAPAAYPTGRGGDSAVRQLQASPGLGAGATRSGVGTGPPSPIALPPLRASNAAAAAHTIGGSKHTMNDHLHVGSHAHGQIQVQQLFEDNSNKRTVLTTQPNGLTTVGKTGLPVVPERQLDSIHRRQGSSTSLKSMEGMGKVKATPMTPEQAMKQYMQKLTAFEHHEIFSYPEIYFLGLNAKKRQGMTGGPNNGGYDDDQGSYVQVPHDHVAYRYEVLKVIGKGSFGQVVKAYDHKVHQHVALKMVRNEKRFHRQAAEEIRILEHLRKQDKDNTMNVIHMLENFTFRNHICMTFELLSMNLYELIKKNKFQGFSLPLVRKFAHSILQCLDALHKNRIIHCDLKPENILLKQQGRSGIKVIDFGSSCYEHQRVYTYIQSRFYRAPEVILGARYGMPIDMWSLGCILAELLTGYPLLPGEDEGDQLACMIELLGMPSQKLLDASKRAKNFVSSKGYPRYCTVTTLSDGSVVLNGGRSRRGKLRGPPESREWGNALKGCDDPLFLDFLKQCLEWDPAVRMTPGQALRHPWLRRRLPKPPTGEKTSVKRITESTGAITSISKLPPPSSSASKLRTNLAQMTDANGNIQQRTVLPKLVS

[5] = target: T3, Mitogen-activated protein kinase kinase kinase 19 (Homo sapiens) (UniProt Q56UN5); assay: Inhibition of YSK4 (unknown origin) assessed as residual activity at 1000 nM by KINOMEscan analysis relative to control
T3 sequence (whole entry): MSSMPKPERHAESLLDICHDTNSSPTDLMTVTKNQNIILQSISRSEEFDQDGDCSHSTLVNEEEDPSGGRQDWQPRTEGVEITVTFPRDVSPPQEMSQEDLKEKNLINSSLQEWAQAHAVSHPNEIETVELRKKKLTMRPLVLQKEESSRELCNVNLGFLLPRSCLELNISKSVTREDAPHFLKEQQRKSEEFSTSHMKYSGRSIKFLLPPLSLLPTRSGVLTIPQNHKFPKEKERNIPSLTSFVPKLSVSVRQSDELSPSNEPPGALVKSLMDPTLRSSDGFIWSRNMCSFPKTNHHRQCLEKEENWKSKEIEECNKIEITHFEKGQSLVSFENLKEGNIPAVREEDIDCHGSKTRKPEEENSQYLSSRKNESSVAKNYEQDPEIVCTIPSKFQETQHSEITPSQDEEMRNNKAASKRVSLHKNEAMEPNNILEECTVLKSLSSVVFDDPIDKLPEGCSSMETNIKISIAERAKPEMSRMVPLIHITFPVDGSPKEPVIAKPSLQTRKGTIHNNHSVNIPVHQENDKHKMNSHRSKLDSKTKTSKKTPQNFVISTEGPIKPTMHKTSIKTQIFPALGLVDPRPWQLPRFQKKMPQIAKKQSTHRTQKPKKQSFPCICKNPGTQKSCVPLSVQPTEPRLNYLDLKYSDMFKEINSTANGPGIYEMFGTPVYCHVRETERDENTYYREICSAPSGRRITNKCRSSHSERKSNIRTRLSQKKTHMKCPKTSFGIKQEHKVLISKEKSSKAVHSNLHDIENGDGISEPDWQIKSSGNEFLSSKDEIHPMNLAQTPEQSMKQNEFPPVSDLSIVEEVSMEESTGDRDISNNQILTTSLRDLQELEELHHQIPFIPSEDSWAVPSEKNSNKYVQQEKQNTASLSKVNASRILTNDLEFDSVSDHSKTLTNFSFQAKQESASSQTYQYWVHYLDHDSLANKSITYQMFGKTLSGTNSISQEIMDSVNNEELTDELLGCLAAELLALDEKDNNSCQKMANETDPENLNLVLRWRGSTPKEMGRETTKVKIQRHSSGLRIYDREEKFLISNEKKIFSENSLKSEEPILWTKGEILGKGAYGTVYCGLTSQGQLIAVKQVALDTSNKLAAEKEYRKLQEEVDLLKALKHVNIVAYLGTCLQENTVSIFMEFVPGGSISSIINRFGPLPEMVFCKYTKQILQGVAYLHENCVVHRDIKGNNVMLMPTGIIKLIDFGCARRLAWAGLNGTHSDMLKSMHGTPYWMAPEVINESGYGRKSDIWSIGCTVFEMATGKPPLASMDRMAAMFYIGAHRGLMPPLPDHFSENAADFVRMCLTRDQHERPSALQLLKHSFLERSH

Sequence of Mitogen-activated protein kinase kinase kinase 4 (Homo sapiens) (Q9Y6R4 whole entry): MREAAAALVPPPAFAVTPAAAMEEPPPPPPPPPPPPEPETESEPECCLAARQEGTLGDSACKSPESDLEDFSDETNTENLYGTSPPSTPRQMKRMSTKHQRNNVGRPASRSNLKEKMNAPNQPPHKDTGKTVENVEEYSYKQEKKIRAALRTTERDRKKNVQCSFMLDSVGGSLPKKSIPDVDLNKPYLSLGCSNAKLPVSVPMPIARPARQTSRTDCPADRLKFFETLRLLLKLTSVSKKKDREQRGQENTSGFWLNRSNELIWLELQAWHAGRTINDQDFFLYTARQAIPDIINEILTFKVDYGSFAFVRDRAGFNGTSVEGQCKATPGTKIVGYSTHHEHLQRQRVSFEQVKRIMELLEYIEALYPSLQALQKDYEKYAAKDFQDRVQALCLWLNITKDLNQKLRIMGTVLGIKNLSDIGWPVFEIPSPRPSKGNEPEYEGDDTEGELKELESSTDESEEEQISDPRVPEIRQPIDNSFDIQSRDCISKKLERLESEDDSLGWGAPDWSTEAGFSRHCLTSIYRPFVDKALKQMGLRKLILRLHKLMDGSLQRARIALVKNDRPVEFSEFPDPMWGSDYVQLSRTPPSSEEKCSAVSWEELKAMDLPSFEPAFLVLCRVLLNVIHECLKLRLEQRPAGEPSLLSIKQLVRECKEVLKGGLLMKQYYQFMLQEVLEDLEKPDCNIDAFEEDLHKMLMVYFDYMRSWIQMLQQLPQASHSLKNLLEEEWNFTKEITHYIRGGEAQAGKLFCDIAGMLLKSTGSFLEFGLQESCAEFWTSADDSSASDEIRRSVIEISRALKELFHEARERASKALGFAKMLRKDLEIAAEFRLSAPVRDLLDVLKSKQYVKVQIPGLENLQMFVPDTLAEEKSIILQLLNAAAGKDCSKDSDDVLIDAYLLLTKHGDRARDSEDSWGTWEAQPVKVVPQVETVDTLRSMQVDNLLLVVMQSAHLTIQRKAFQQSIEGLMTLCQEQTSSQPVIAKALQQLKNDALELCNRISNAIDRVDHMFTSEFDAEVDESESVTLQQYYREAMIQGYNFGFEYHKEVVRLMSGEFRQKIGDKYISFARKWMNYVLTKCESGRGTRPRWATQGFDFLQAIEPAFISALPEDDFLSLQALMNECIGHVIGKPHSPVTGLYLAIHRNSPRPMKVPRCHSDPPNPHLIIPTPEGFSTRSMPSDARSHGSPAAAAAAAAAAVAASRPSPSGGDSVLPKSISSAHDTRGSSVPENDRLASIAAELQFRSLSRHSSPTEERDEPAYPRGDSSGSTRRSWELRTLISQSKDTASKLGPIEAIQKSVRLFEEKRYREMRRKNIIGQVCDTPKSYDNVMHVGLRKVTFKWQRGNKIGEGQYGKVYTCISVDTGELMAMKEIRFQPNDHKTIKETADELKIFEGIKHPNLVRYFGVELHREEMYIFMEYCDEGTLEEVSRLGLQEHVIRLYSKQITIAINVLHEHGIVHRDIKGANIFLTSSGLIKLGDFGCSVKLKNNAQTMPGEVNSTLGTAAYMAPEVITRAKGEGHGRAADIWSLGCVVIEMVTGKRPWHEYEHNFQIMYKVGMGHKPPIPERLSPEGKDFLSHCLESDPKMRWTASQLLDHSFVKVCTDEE
Sequence of RAC-beta serine/threonine-protein kinase (Homo sapiens) (P31751 whole entry): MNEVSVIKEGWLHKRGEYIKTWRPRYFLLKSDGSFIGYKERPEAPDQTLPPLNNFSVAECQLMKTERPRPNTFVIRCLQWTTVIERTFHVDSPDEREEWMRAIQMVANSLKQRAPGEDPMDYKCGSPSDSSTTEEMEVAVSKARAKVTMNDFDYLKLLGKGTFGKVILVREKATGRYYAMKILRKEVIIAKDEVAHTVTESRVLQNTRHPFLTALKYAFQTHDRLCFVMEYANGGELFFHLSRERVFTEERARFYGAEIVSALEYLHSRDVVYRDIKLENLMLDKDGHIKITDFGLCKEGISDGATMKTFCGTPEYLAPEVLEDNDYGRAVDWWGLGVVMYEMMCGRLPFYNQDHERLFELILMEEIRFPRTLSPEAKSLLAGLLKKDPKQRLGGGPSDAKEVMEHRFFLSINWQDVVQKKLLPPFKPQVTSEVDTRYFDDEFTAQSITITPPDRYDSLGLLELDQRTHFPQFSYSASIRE

SMILES	Activity [1] [%]	Activity [2] [%]	Activity [3] [%]	Activity [4] [%]	Activity [5] [%]
COc1cc2nc(C)nc(N[C@H](C)c3cccc(-c4cn[nH]c4)c3)c2cc1OC	99	50	81	99	84
COc1cc2ncnc(N[C@H](C)c3cccc4ccccc34)c2cc1OC	100	96	99	90	90
